Measured values from the NIST ThermoML archive (doi:10.1016/j.jct.2016.07.017).

Legend:
[1] = for viscosity / mass density: 101.33 kPa; for viscosity / mass density / surface tension liquid-gas: Liquid; for viscosity: Falling or rolling sphere viscometry; for mass density: Vibrating tube method; for surface tension liquid-gas: Ring tensiometer
[2] = activity coefficient (dimensionless); of the first substance listed, at infinite dilution; xn = mol fraction of the nth substance listed; details: 101.33 kPa, Liquid, Chromatography, x1 = 0

CC[N+](C)(CC)CCOC.O=S(=O)([N-]S(=O)(=O)C(F)(F)F)C(F)(F)F
[1]
Details	mass density [kg/m3]	surface tension liquid-gas [mN/m]	viscosity [mPa·s]
288.15 K	1416.6	–	120.6
298.15 K	1407.33	33.6	70.96
308.15 K	1398.12	32.6	45.36
318.15 K	1389	32.1	30.96
328.15 K	1379.94	31.6	22.23
338.15 K	1370.78	31.3	16.58
348.15 K	1361.55	–	12.79
358.15 K	1352.39	–	10.18
368.15 K	1343.38	–	8.19

Details	Glass transition temperature [°C]
[1], Glass, DSC	-93.7

C=CCCCC [hex-1-ene] + CC[N+](C)(CC)CCOC.O=S(=O)([N-]S(=O)(=O)C(F)(F)F)C(F)(F)F
[2]
Details	activity coefficient
318.15 K	9.21
328.15 K	8.78
338.15 K	8.33
348.15 K	8.07
358.15 K	7.64

CCCCCC [hexane] + CC[N+](C)(CC)CCOC.O=S(=O)([N-]S(=O)(=O)C(F)(F)F)C(F)(F)F
[2]
Details	activity coefficient
318.15 K	18.2
328.15 K	16.9
338.15 K	15.8
348.15 K	14.9
358.15 K	14

CO [methanol] + CC[N+](C)(CC)CCOC.O=S(=O)([N-]S(=O)(=O)C(F)(F)F)C(F)(F)F
[2]
Details	activity coefficient
318.15 K	1.33
328.15 K	1.26
338.15 K	1.15
348.15 K	1.09
358.15 K	1.01

CC1CCCCC1 [methylcyclohexane] + CC[N+](C)(CC)CCOC.O=S(=O)([N-]S(=O)(=O)C(F)(F)F)C(F)(F)F
[2]
Details	activity coefficient
318.15 K	14.9
328.15 K	13.8
338.15 K	12.9
348.15 K	12
358.15 K	11.2

CCCCCCCCC [nonane] + CC[N+](C)(CC)CCOC.O=S(=O)([N-]S(=O)(=O)C(F)(F)F)C(F)(F)F
[2]
Details	activity coefficient
318.15 K	55.7
328.15 K	50
338.15 K	45.3
348.15 K	41
358.15 K	37.7

C=CCCCCCC [oct-1-ene] + CC[N+](C)(CC)CCOC.O=S(=O)([N-]S(=O)(=O)C(F)(F)F)C(F)(F)F
[2]
Details	activity coefficient
318.15 K	19.6
328.15 K	18.3
338.15 K	17.1
348.15 K	16.2
358.15 K	15.2

CCCCCCCC [octane] + CC[N+](C)(CC)CCOC.O=S(=O)([N-]S(=O)(=O)C(F)(F)F)C(F)(F)F
[2]
Details	activity coefficient
318.15 K	38.3
328.15 K	34.8
338.15 K	31.9
348.15 K	29.5
358.15 K	27

CCCC(C)=O [pentan-2-one] + CC[N+](C)(CC)CCOC.O=S(=O)([N-]S(=O)(=O)C(F)(F)F)C(F)(F)F
[2]
Details	activity coefficient
318.15 K	0.853
328.15 K	0.862
338.15 K	0.87
348.15 K	0.884
358.15 K	0.896

CCC(=O)CC [pentan-3-one] + CC[N+](C)(CC)CCOC.O=S(=O)([N-]S(=O)(=O)C(F)(F)F)C(F)(F)F
[2]
Details	activity coefficient
318.15 K	0.852
328.15 K	0.873
338.15 K	0.889
348.15 K	0.906
358.15 K	0.916

CCCO [propan-1-ol] + CC[N+](C)(CC)CCOC.O=S(=O)([N-]S(=O)(=O)C(F)(F)F)C(F)(F)F
[2]
Details	activity coefficient
318.15 K	2.26
328.15 K	2.04
338.15 K	1.87
348.15 K	1.72
358.15 K	1.59

CC(C)O [propan-2-ol] + CC[N+](C)(CC)CCOC.O=S(=O)([N-]S(=O)(=O)C(F)(F)F)C(F)(F)F
[2]
Details	activity coefficient
318.15 K	2.04
328.15 K	1.84
338.15 K	1.7
348.15 K	1.56
358.15 K	1.44

c1ccncc1 [pyridine] + CC[N+](C)(CC)CCOC.O=S(=O)([N-]S(=O)(=O)C(F)(F)F)C(F)(F)F
[2]
Details	activity coefficient
318.15 K	0.6
328.15 K	0.604
338.15 K	0.607
348.15 K	0.615
358.15 K	0.619

C=Cc1ccccc1 [styrene] + CC[N+](C)(CC)CCOC.O=S(=O)([N-]S(=O)(=O)C(F)(F)F)C(F)(F)F
[2]
Details	activity coefficient
318.15 K	1.3
328.15 K	1.3
338.15 K	1.31
348.15 K	1.34
358.15 K	1.36

C1CCOC1 [tetrahydrofuran] + CC[N+](C)(CC)CCOC.O=S(=O)([N-]S(=O)(=O)C(F)(F)F)C(F)(F)F
[2]
Details	activity coefficient
318.15 K	0.817
328.15 K	0.83
338.15 K	0.845
348.15 K	0.862
358.15 K	0.867

c1ccsc1 [thiophene] + CC[N+](C)(CC)CCOC.O=S(=O)([N-]S(=O)(=O)C(F)(F)F)C(F)(F)F
[2]
Details	activity coefficient
318.15 K	0.906
328.15 K	0.912
338.15 K	0.925
348.15 K	0.937
358.15 K	0.94

Cc1ccccc1 [toluene] + CC[N+](C)(CC)CCOC.O=S(=O)([N-]S(=O)(=O)C(F)(F)F)C(F)(F)F
[2]
Details	activity coefficient
318.15 K	1.47
328.15 K	1.48
338.15 K	1.5
348.15 K	1.52
358.15 K	1.53

O [water] + CC[N+](C)(CC)CCOC.O=S(=O)([N-]S(=O)(=O)C(F)(F)F)C(F)(F)F
[2]
Details	activity coefficient
318.15 K	1.9
328.15 K	1.73
338.15 K	1.6
348.15 K	1.46
358.15 K	1.32
